Laboratory results as given in ChEMBL document CHEMBL5303304, “EUbOPEN Chemogenomics Library - IncuCyte” (2023).

Assays:
Type in all cases: toxicity, cell-based
HEK-293T = assay: Incucyte cell viability with HEK293T; conditions: human, 10 µM, compound concentration 10 uM
Fibroblast = assay: Incucyte cell viability with human fibroblast; conditions: 10 µM, compound concentration 10 uM
U2OS = assay: Incucyte cell viability with U2OS; conditions: human, 10 µM, compound concentration 10 uM
Also: unitless GR value; below 1 slowed growth and below 0 cell loss.

| Compound | Growth Rate (HEK-293T; 6 h, replicate number 1) | Growth Rate (HEK-293T; 12 h, replicate number 1) | Growth Rate (HEK-293T; 12 h, replicate number 2) | Growth Rate (HEK-293T; 18 h, replicate number 1) | Growth Rate (HEK-293T; 18 h, replicate number 2) | Growth Rate (HEK-293T; 24 h, replicate number 1) | Growth Rate (HEK-293T; 24 h, replicate number 2) | Growth Rate (Fibroblast; 6 h, replicate number 2) | Growth Rate (Fibroblast; 12 h, replicate number 2) | Growth Rate (Fibroblast; 18 h, replicate number 2) | Growth Rate (U2OS; 24 h, replicate number 1) | Growth Rate (Fibroblast; 0 h, replicate number 2) | Growth Rate (Fibroblast; 24 h, replicate number 2) | Growth Rate (U2OS; 0 h, replicate number 1) | Growth Rate (U2OS; 0 h, replicate number 2) | Growth Rate (U2OS; 6 h, replicate number 1) | Growth Rate (U2OS; 12 h, replicate number 1) | Growth Rate (Fibroblast; 6 h, replicate number 1) | Growth Rate (Fibroblast; 24 h, replicate number 1) | Growth Rate (U2OS; 18 h, replicate number 2) | also measured |
| --- | --- | --- | --- | --- | --- | --- | --- | --- | --- | --- | --- | --- | --- | --- | --- | --- | --- | --- | --- | --- | --- |
| Cc1c(NC(=O)c2ccc(C(C)(C)C)cc2)cccc1-c1cn(C)c(=O)c(Nc2ccc(C(=O)N3CCOCC3)cc2)n1 | 0.48 | 0.38 | 0.51 | 0.53 | 0.35 | 0.63 | 0.48 | -0.1 | 0.63 | 0.72 | 0.97 | – | – | – | – | – | – | – | – | – | – |
| CCN(C)C(=O)c1ccc2c(c1)NC(=O)/C2=C(\NC1CCN(C)CC1)c1ccccc1 | 0.43 | 0.82 | – | – | 0.82 | – | 0.89 | 0.61 | – | – | 0.92 | -0.73 | 0.93 | 0.88 | 0.18 | 0.68 | 0.93 | – | – | – | – |
| CNc1nc(-c2cc(C(=O)N3CCN(Cc4ccc(Cl)cc4)CC3)c(Cl)cn2)cs1 | 0.91 | 0.62 | 0.01 | 0.62 | 0.14 | 0.69 | 0.23 | -0.96 | -0.28 | -0.12 | 0.37 | – | 0.18 | -0.54 | -0.41 | -0.33 | 0.1 | -0.5 | 0.23 | 0.37 | Growth Rate (HEK-293T; 6 h, replicate number 2): -0.49; Growth Rate (Fibroblast; 0 h, replicate number 1): -1; Growth Rate (Fibroblast; 12 h, replicate number 1): -0.19; Growth Rate (Fibroblast; 18 h, replicate number 1): -0.06; Growth Rate (U2OS; 6 h, replicate number 2): -0.21; Growth Rate (U2OS; 12 h, replicate number 2): 0.27; Growth Rate (U2OS; 18 h, replicate number 1): 0.4; Growth Rate (U2OS; 24 h, replicate number 2): 0.65 |
| COc1cc2nc(C)nc(N[C@H](C)c3cc(N)cc(C(F)(F)F)c3)c2cc1O[C@H]1CCOC1 | 0.91 | 0.88 | – | – | – | – | – | -0.84 | 0.03 | 0.65 | 0.83 | – | 0.88 | 0.75 | – | 0.51 | – | 0.72 | – | – | Growth Rate (Fibroblast; 0 h, replicate number 1): -1; Growth Rate (U2OS; 6 h, replicate number 2): 0.96; Growth Rate (U2OS; 18 h, replicate number 1): 0.93 |
| Cc1cc(-c2ccnc(Nc3cnn(C)c3)n2)ccc1CNC(=O)N1CC(OC(C)C)C1 | 0.37 | 0.72 | – | 0.79 | – | 0.98 | – | – | – | – | 0.89 | -0.87 | – | – | – | 0.99 | 0.8 | 0.47 | 0.75 | – | Growth Rate (Fibroblast; 18 h, replicate number 1): 0.97; Growth Rate (U2OS; 6 h, replicate number 2): 0.93; Growth Rate (U2OS; 18 h, replicate number 1): 0.98 |
| CNC(=O)COc1cc2cc(Nc3nc(N4CCC(C(=O)N(C)C)CC4)ncc3Cl)cc(OC)c2n(C)c1=O | 0.46 | 0.74 | 0.41 | 0.57 | 0.58 | 0.67 | 0.66 | 0.46 | – | – | 0.92 | 0 | 0.87 | – | 0.59 | 0.94 | – | – | – | 0.87 | Growth Rate (HEK-293T; 6 h, replicate number 2): 0.13; Growth Rate (U2OS; 12 h, replicate number 2): 0.77; Growth Rate (U2OS; 24 h, replicate number 2): 0.91 |
| Cn1cncc1-c1cn(-c2cccc(C(=O)Nc3cccc(C(F)(F)F)c3)c2)nn1 | -0.32 | -0.13 | 0.03 | 0.06 | 0.14 | 0.24 | 0.3 | 0.53 | 0.77 | 0.64 | 0.95 | – | 0.87 | – | 0.55 | 0.83 | – | – | 0.48 | 0.89 | Growth Rate (HEK-293T; 6 h, replicate number 2): -0.41; Growth Rate (Fibroblast; 12 h, replicate number 1): 0.87; Growth Rate (Fibroblast; 18 h, replicate number 1): 0.87; Growth Rate (U2OS; 12 h, replicate number 2): 0.86 |
| COc1cc(C(=O)NCCOCCOCCOCC(=O)N[C@H](C(=O)N2C[C@H](O)C[C@H]2C(=O)NCc2ccc(-c3scnc3C)cc2)C(C)(C)C)ccc1Nc1ncc(C(F)(F)F)c(Oc2cccc3c2C(=O)CC3)n1 | 0.29 | -0.01 | 0.02 | 0 | -0.01 | 0.03 | -0.02 | -0.8 | 0.43 | 0.85 | 0.61 | 0.72 | 0.84 | – | 0.63 | – | – | 0.15 | 0.14 | 0.66 | Growth Rate (Fibroblast; 12 h, replicate number 1): 0.45; Growth Rate (Fibroblast; 18 h, replicate number 1): 0.28; Growth Rate (U2OS; 12 h, replicate number 2): 0.87; Growth Rate (U2OS; 24 h, replicate number 2): 0.68 |
| Cc1cc(=O)oc2cc(NC(=O)[C@H](Cc3ccc(I)cc3)NC(=O)[C@H]3N[C@@H]4CC[C@H]3C4)ccc12.O=C(O)C(F)(F)F | -0.02 | 0.55 | – | 0.61 | – | 0.76 | – | -0.13 | 0.19 | 0.35 | 0.88 | – | 0.61 | -0.48 | – | 0.26 | 0.89 | – | – | 0.92 | Growth Rate (Fibroblast; 0 h, replicate number 1): -1; Growth Rate (U2OS; 18 h, replicate number 1): 0.97; Growth Rate (U2OS; 24 h, replicate number 2): 0.85 |
| O=C(Nc1cccc(C(F)(F)F)c1)c1cccc(-n2cc(-c3ccco3)nn2)c1 | 0.68 | 0.8 | 1 | 0.67 | – | 0.76 | – | – | – | – | 0.9 | -0.94 | – | – | 0.15 | 0.72 | 0.78 | 0.82 | 0.97 | 0.95 | Growth Rate (HEK-293T; 6 h, replicate number 2): 0.56; Growth Rate (U2OS; 12 h, replicate number 2): 0.81 |
| CN1C(=O)Cc2ccc(-c3ccc(C[C@@H](C#N)NC(=O)[C@@H]4N[C@H]5CC[C@@H]4C5)c(F)c3)cc21 | 0.06 | 0.07 | 0.61 | 0.19 | 0.73 | 0.28 | 0.82 | – | 0.99 | – | – | – | – | 0.98 | – | 0.89 | – | 0.38 | 0.61 | – | Growth Rate (HEK-293T; 6 h, replicate number 2): 0.52; Growth Rate (Fibroblast; 12 h, replicate number 1): 0.46; Growth Rate (Fibroblast; 18 h, replicate number 1): 0.42 |
